Biological target: T1, hTRPM8 (Homo sapiens, UniProt Q7Z2W7)
T1 construct: expressed in transfected cells
Assay: Assay on TRPM8 modulators: calcium imaging (Fluo-4, Flexstation) in HEK293 cell line stably expressing hTRPM8
Assay type: cell-based
Settings: HEK293 cells stably expressing hTRPM8; calcium influx, Fluo-4, Flexstation 3; sigmoidal dose-response fit
Experimental: A HEK293 cell line stably expressing hTRPM8 was generated according to Klein of at, (Chem. Senses 36: […], 2011) and receptor activation was monitored by calcium imaging in a Flexstation. For Ca-imaging assays of TRPM8 channel activation, cells were seeded on day 0 at a density of 12000 cells per well in Dulbecco's modified Eagle medium (DMEM) containing 9% foetal bovine serum in black, clear bottom 96-well plates that had been coated with 0.001% polyethyleneimine (molecular weight=60 000, Acros Organics). On day 2, agonists were evaluated via calcium imaging using Fluo-4. Briefly, growth medium was discarded, and the cells were incubated in the dark for 1 h at 37° C. in 50 μL loading buffer consisting of 2.7 μM Fluo-4 AM (Invitrogen) and […] probenecid (Sigma-Aldrich) in DMEM (without serum). After incubation, the plates were washed five times with 100 μL of assay buffer (in mM: 130 NaCl, 5 KCl, 10 HEPES, 2 CaCl2, and 10 glucose, pH7.4.) and further incubated in the dark at room temperature for 30 min. The cells were then washed five times with 100 μL assay buffer and then calcium influx to serial dilutions of inventive compounds were measured in a Flexstation 3 (Molecular Devices). Receptor activation was initiated following addition of 20 μl of a 10-fold concentrated ligand stock solution, which is also prepared in assay buffer. Fluorescence was continuously monitored for 15 seconds prior to ligand addition and for 105 seconds after ligand addition, for a total of 120 seconds. Maximal receptor activation in relation to solvent control and relative to 31.6 μM menthol is determined. Data from serial dilutions were processed with a KNIME workflow to fit a sigmoidal dose-response curve and to extrapolate […].

T1 sequence (Q7Z2W7 whole entry): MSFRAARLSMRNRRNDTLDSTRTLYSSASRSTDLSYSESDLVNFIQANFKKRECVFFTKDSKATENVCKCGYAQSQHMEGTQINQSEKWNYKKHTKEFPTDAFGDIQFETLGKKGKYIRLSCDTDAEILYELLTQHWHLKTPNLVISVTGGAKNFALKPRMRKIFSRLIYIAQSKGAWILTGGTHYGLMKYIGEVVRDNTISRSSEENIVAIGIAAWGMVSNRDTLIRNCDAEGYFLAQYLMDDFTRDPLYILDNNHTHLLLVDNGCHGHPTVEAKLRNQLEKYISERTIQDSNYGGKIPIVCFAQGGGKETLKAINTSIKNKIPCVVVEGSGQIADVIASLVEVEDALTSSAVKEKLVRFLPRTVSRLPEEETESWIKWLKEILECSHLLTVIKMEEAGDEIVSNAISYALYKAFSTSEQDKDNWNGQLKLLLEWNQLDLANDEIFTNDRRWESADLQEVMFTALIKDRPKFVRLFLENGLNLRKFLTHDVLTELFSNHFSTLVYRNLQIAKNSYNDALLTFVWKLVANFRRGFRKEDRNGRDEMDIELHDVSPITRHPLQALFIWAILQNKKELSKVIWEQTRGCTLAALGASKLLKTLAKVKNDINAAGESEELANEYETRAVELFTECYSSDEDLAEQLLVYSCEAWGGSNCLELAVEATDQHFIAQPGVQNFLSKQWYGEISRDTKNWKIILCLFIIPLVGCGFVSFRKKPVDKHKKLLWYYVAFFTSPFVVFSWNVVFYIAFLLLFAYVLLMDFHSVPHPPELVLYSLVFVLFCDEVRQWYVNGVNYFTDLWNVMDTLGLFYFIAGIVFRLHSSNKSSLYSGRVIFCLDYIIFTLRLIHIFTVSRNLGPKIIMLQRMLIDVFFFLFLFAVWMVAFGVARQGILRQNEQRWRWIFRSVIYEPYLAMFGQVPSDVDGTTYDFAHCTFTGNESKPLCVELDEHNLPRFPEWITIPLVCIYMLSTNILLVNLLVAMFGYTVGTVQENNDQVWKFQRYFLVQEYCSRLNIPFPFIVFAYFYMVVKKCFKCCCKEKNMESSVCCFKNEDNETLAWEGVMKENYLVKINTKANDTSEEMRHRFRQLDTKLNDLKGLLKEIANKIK

Compound | EC50
CSC(C)C(=O)N1CCCCC1c1nc(-c2cccnc2)c[nH]1 (centres unmarked) [Compound 113, 2-(methylthio)-1-(2-(4-(pyridin-3-yl)-1H-imidazol-2-yl)piperidin-1-yl)propan-1-one] | 300 to 1000 nM
CCOC(C(=O)N1CCCCC1c1nc(-c2ccccc2)c[nH]1)C1CCCC1 (centres unmarked) [Compound 149, 2-cyclopentyl-2-ethoxy-1-(2-(4-phenyl-1H-imidazol-2-yl)piperidin-1-yl)ethan-1-one] | 1000 to 35000 nM
CS(=O)(=O)CC(=O)N1CCCCC1c1nc(-c2ccccc2)c[nH]1 (centres unmarked) [Compound 102, 2-(methylsulfonyl)-1-(2-(4-phenyl-1H-imidazol-2-yl)piperidin-1-yl)ethan-1-one] | 1000 to 35000 nM
CCC(C)C(=O)N1CCCCC1c1nc(-c2ccc(C)cc2)co1 (centres unmarked) [Compound 208, 2-methyl-1-(2-(4-(p-tolyl)oxazol-2-yl)piperidin-1-yl)butan-1-one] | < 50 nM
O=C(CC1CC1)N1CCCCC1c1nc(-c2ccccc2)c[nH]1 (centres unmarked) [Compound 150, 2-cyclopropyl-1-(2-(4-phenyl-1H-imidazol-2-yl)piperidin-1-yl)ethan-1-one] | 1000 to 35000 nM
CCC(CC)C(=O)N1CCCCC1c1nc(-c2ccccc2)c[nH]1 (centres unmarked) [Compound 155, 2-ethyl-1-(2-(4-phenyl-1H-imidazol-2-yl)piperidin-1-yl)butan-1-one] | 50 to 300 nM
COCCc1ccc(-c2cnc(C3CCCCN3C(=O)C(C)SC)[nH]2)cc1 (centres unmarked) [Compound 70, 1-(2-(5-(4-(2-methoxyethyl)phenyl)-1H-imidazol-2-yl)piperidin-1-yl)-2-(methylthio)propan-1-one] | 50 to 300 nM
COc1cccc(-c2cnc(C3CCCCN3C(=O)C(C)SC)[nH]2)c1 (centres unmarked) [Compound 68, 1-(2-(5-(3-methoxyphenyl)-1H-imidazol-2-yl)piperidin-1-yl)-2-(methylthio)propan-1-one] | 50 to 300 nM
CSC(C)C(=O)N1CCCCC1c1ncc(-c2ccc(CC#N)cc2)[nH]1 (centres unmarked) [Compound 196, 2-(4-(2-(1-(2-(methylthio)propanoyl)piperidin-2-yl)-1H-imidazol-5-yl)phenyl)acetonitrile] | < 50 nM
Cc1ccc(-c2cnc(C3CCCCN3C(=O)C(C)c3ccoc3)[nH]2)cc1 (centres unmarked) [Compound 99, 2-(furan-3-yl)-1-(2-(5-(p-tolyl)-1H-imidazol-2-yl)piperidin-1-yl)propan-1-one] | < 50 nM
CSC(C)C(=O)N1CCCCC1c1nc(-c2ccc3nccnc3c2)c[nH]1 (centres unmarked) [Compound 116, 2-(methylthio)-1-(2-(4-(quinoxalin-6-yl)-1H-imidazol-2-yl)piperidin-1-yl)propan-1-one] | 300 to 1000 nM
CCCC(C)C(=O)N1CCCCC1c1ncc(-c2ccc(C)cc2)[nH]1 (centres unmarked) [Compound 168, 2-methyl-1-(2-(5-(p-tolyl)-1H-imidazol-2-yl)piperidin-1-yl)pentan-1-one] | < 50 nM
CCC(C)C(=O)N1CCCCC1c1ncc(Br)[nH]1 (centres unmarked) [Compound 194, 1-(2-(5-bromo-1H-imidazol-2-yl)piperidin-1-yl)-2-methylbutan-1-one] | 1000 to 35000 nM
CC(F)(F)CC(=O)N1CCCCC1c1nc(-c2ccccc2)c[nH]1 (centres unmarked) [Compound 177, 3,3-difluoro-1-(2-(4-phenyl-1H-imidazol-2-yl)piperidin-1-yl)butan-1-one] | 1000 to 35000 nM
CSC(C)C(=O)N1CCCCC1c1nc(-c2cc(F)c(C#N)cc2F)c[nH]1 (centres unmarked) [Compound 146, 2,5-difluoro-4-(2-(1-(2-(methylthio)propanoyl)piperidin-2-yl)-1H-imidazol-4-yl)benzonitrile] | < 50 nM
CSC(C)C(=O)N1CCCCC1c1nc(-c2ccc(C3CC3)cc2F)c[nH]1 (centres unmarked) [Compound 37, 1-(2-(4-(4-cyclopropyl-2-fluorophenyl)-1H-imidazol-2-yl)piperidin-1-yl)-2-(methylthio)propan-1-one] | < 50 nM
COCc1cc(-c2cnc(C3CCCCN3C(=O)C(C)SC)[nH]2)cs1 (centres unmarked) [Compound 83, 1-(2-(5-(5-(methoxymethyl)thiophen-3-yl)-1H-imidazol-2-yl)piperidin-1-yl)-2-(methylthio)propan-1-one] | 50 to 300 nM

From patent US12528801B2 (Givaudan SA, priority 2019, dated 2026)
